{"source": "patent US20250108038A1", "about": "(priority 2023, published 2025)", "key": {"CYP1A2 [1]": {"biological_target": "T1, CYP1A2 (Homo sapiens, UniProt P05177)", "T1 sequence (P05177 1-516)": "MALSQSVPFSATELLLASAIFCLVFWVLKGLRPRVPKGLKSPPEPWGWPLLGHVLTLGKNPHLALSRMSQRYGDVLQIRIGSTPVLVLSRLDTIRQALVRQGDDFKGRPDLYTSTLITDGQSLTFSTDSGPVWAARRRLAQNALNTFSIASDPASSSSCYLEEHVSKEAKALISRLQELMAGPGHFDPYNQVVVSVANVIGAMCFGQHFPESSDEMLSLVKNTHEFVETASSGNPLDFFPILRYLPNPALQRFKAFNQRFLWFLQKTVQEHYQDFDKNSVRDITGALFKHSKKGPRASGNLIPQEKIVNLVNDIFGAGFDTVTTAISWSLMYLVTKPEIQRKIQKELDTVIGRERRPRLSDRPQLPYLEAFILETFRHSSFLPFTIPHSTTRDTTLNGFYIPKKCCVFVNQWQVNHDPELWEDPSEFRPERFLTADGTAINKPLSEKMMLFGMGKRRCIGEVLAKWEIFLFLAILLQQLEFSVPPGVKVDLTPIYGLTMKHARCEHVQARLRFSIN", "experiment": "in vitro", "details": "both, microsomes, pH 7.4"}, "CYP2D6 [2]": {"biological_target": "T2, CYP2D6 (Homo sapiens, UniProt P10635)", "T2 sequence (P10635 whole entry)": "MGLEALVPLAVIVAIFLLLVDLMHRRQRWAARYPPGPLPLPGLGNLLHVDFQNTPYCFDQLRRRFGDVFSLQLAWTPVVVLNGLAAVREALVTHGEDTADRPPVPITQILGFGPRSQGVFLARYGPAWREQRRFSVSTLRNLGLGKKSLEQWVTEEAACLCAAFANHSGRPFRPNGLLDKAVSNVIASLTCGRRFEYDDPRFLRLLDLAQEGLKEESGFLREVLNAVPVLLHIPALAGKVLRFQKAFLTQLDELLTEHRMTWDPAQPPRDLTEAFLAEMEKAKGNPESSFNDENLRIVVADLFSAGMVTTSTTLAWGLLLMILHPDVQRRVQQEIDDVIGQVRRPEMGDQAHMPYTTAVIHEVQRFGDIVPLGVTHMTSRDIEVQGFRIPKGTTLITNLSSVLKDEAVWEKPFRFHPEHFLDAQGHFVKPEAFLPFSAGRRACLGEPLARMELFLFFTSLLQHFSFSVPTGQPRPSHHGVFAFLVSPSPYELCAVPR", "experiment": "in vitro", "details": "both, pH 7.4"}, "CYP2D6 [3]": {"biological_target": "T2, CYP2D6", "experiment": "biochemical"}, "CYP2C9": {"biological_target": "CYP2C9 (Homo sapiens, UniProt P11712)", "sequence (P11712 whole entry)": "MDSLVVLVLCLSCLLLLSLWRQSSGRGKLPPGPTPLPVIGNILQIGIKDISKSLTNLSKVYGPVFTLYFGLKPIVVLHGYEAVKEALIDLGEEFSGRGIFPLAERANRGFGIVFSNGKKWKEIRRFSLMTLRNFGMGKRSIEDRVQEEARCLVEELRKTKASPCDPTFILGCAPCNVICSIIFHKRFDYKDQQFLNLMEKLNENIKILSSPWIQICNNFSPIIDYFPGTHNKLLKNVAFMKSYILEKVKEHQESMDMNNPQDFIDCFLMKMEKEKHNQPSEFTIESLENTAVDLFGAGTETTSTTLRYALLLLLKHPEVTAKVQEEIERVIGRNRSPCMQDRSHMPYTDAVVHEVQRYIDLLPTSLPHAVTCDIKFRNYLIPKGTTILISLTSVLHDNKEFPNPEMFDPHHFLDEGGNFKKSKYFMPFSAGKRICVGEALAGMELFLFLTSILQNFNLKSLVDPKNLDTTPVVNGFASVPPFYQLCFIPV", "experiment": "in vitro", "details": "both, pH 7.4"}, "CYP2C19 [4]": {"biological_target": "T3, CYP2C19 (Homo sapiens, UniProt P33261)", "T3 sequence (P33261 whole entry)": "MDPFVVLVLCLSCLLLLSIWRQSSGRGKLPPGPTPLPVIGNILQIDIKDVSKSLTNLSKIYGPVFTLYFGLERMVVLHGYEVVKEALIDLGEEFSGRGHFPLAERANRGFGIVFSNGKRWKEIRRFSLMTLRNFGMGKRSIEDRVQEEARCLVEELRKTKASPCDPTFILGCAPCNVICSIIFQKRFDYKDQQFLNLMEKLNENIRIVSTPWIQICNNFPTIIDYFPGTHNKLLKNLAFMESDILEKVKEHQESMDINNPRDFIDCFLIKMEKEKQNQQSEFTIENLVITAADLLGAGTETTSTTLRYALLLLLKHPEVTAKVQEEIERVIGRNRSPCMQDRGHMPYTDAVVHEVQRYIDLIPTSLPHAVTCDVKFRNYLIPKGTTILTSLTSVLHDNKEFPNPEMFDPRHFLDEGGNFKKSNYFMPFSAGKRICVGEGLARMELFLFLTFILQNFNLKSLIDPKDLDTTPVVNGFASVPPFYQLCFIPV", "experiment": "in vitro", "details": "both, pH 7.4"}, "CYP3A4": {"biological_target": "CYP3A4 (Homo sapiens, UniProt P08684)", "sequence (P08684 whole entry)": "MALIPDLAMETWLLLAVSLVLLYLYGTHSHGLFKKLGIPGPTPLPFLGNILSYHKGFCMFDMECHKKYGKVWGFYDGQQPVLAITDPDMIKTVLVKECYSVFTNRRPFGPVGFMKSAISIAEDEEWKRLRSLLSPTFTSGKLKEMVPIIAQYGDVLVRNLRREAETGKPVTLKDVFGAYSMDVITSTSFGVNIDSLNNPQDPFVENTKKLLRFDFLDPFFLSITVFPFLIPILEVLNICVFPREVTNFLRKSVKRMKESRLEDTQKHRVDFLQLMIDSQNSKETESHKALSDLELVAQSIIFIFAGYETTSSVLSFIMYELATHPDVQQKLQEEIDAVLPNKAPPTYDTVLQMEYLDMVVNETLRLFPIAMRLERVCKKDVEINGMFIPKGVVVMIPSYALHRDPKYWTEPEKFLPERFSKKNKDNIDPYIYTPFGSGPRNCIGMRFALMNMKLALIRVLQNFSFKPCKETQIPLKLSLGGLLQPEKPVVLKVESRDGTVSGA", "experiment": "in vitro", "details": "both, pH 7.4, Inhibition at Highest Test Article Concentration"}, "CYP2B6": {"biological_target": "T4, CYP2B6 (Homo sapiens, UniProt P20813)", "T4 sequence (P20813 1-491)": "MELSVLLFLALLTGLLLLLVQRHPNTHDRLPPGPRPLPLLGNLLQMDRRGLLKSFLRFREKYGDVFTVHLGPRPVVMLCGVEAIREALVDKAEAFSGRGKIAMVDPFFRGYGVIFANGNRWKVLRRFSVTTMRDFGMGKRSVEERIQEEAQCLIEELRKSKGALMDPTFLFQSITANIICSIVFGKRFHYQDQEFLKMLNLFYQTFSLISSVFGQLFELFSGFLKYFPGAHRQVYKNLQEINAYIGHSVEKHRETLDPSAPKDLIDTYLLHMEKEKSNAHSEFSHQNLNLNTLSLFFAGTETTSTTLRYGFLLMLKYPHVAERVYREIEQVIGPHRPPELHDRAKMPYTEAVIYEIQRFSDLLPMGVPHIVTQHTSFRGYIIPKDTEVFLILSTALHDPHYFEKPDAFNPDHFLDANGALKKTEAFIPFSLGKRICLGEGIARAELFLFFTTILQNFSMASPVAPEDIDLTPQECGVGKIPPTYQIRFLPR", "experiment": "biochemical"}, "[5]": {"experiment": "Brain homogenate binding by equilibrium dialysis", "format": "in vitro ADME, mouse", "details": "for % Recovery / % Unbound: mouse brain, 2 μM, 37° C.", "procedure": "Samples of spiked plasma and blank buffer (Dulbecco's phosphate-buffered saline, DPBS) and spiked brain homogenate and blank DPBS added to opposing sides of a dialysis membrane were collected from triplicate equilibrium dialysis chambers prior to (t=0) and following 1, 2, 4 and 6 hours of incubation at 37° C. […] The LC-MS/MS method(s) for analytes (Compound I-19, Compound A and Compound B) was cross-qualified for the analysis of the DPBS samples.\nA secondary stock solution of 200 μM (74.2 ug/mL) will be prepared in DMSO. This secondary stock solution will then be diluted 100-fold to 2 μM ([…]) with male CD-1 mouse plasma and brain homogenate (1:2 v/v brain:Dulbecco's phosphate buffered saline, pH 7-7.2) or buffer (DPBS).\nTo 2.97 mL aliquots of thawed mouse plasma or brain homogenate warmed to 37° C., 30 ul aliquots of the secondary stock solution of the test compound will be added for final concentrations of 2 μM (0.742 ug/mL). An appropriate volume of warmed buffer (DPBS) will also be spiked with the test compound at a concentration of 2 μM ([…]). Triplicate aliquots (50 μL) of each spiked plasma, brain homogenate and buffer solution will be collected prior to dialysis into labeled 1.5 mL polypropylene tubes and then stored at approximately −80° C. until bioanalysis.\nEquilibrium dialysis will be performed in a 96-well Teflon dialysis unit (HTDialysis, Gales Ferry, CT). Each well of the unit consists of two chambers separated by a vertically aligned dialysis membrane (regenerated cellulose) with a molecular weight cut-off of 12-14 KDa. The equilibrium dialysis membranes will first be presoaked in deionized water for 30 min, then soaked in 20% ethanol for 20 min, followed by rinsing twice with deionized water.\nThe equilibrium dialysis apparatus will be assembled according to the manufacturer's directions. One chamber of each well will be immediately filled with 150 μL of blank buffer (to prevent membrane dehydration). Aliquots (150 μL) of spiked plasma, spiked brain homogenate and spiked buffer will then be added to the opposing chamber in each well. Three wells per time point per matrix will be used. The top of the plate will be sealed with an adhesive sealing film to prevent evaporation and maintain constant pH during incubation.\nThe dialysis apparatus will be incubated at 37° C. in an orbital shaker/incubator (Lab-Line Enviro Shaker) set at 75 rpm.\nFollowing 1, 2, 4 and 6 hours of incubation, samples from each plasma, brain homogenate and buffer compartment will be collected and the sample volume will be documented."}, "CYP2C19 [6]": {"biological_target": "T3, CYP2C19"}, "CYP1A2 [7]": {"biological_target": "T1, CYP1A2"}}, "data": [{"smiles": "OC1(c2ccc(Cl)cc2)c2ccccc2C2=NCCN21", "note": "(stereo not drawn) [Compound A, 5-(4-chlorophenyl)-2,3-dihydroimidazo[1,2-b]isoindol-5-ol, reference compound]", "values": [{"measurement": "inhibition at 50 µM", "setting": "CYP1A2 [1]", "value": 13.7, "unit": "%"}, {"measurement": "inhibition at 10 µM", "setting": "CYP2D6 [2]", "value": 70.8, "unit": "%"}, {"measurement": "IC50", "setting": "CYP2D6 [3]", "value": 4.16, "unit": "µM"}, {"measurement": "inhibition at 10 µM", "setting": "CYP2C9", "value": 10.2, "unit": "%"}, {"measurement": "inhibition at 10 µM", "setting": "CYP2C19 [4]", "value": 16.5, "unit": "%"}, {"measurement": "inhibition at 10 µM", "setting": "CYP3A4; 3A4, Midazolam", "value": 11.7, "unit": "%"}, {"measurement": "inhibition at 10 µM", "setting": "CYP3A4; 3A4, Testosterone", "value": 14, "unit": "%"}, {"measurement": "IC50", "setting": "CYP2B6", "value": 0.092, "unit": "µM"}]}, {"smiles": "Clc1ccc(C2(OCC3OCCO3)c3ccccc3C3=NCCN32)cc1", "note": "(stereo not drawn) [Compound I-19]", "values": [{"measurement": "% recovery, brain homogenate", "setting": "[5]; 6 hours of dialysis", "value": "51.3±2.58", "unit": "%"}, {"measurement": "% Recovery", "setting": "[5]; dialysis time 1 h", "value": "87.8 ± 2.40", "unit": "%"}, {"measurement": "% Unbound", "setting": "[5]; dialysis time 1 h", "value": 1.33, "unit": "%"}, {"measurement": "% Recovery", "setting": "[5]; dialysis time 2 h", "value": "83.1 ± 1.58", "unit": "%"}, {"measurement": "% Unbound", "setting": "[5]; dialysis time 2 h", "value": "1.64 ± 0.181", "unit": "%"}, {"measurement": "% Recovery", "setting": "[5]; dialysis time 4 h", "value": "65.1 ± 4.05", "unit": "%"}, {"measurement": "% Unbound", "setting": "[5]; dialysis time 4 h", "value": "2.46 ± 0.183", "unit": "%"}, {"measurement": "% Recovery", "setting": "[5]; dialysis time 6 h", "value": "51.3 ± 2.58", "unit": "%"}, {"measurement": "% Unbound", "setting": "[5]; dialysis time 6 h", "value": "3.31 ± 0.385", "unit": "%"}, {"measurement": "Inhibition at Highest Test Article Concentration", "setting": "CYP2C19 [6]; 2C19, Mephenytoin, at 50 μM", "value": 83.2, "unit": "at 50 μM %"}, {"measurement": "IC50", "setting": "CYP2C19 [6]; microsomes", "value": 17.3, "unit": "µM"}, {"measurement": "Inhibition at Highest Test Article Concentration", "setting": "CYP1A2 [7]; 1A2, Phenacetin, at 50 μM", "value": 18.2, "unit": "at 50 μM %"}, {"measurement": "IC50", "setting": "CYP1A2 [7]; pooled human liver microsomes, 30 min", "value": "did not inhibit"}]}]}
